# In ChEMBL document CHEMBL1129533, “Thrombus imaging using technetium-99m-labeled high-potency GPIIb/IIIa receptor antagonists. Chemistry and initial biological studies” (J Med Chem, 1996):
# Where a SMILES comes first, the peptide text is derived from it. Bridges are numbered along the chain shown (N, C = ends). [ ]: non-standard residue; d: D form. The star is where a group is joined. Propyl(3-NH2) = NCCC*; Acm = CC(=O)NC*
# Species on record: Canis familiaris
# Assay: Percent injected dose in the blood was determined by canine thrombosis model
# Format: functional, organism-based
# Settings: Canis lupus familiaris
row,SMILES,ID/g
1,N=C(N)c1ccc(C[C@H]2NC(=O)[C@H](Cc3ccc(O)cc3)NC(=O)CSC[C@H](C(=O)N[C@@H](CCCCN)C(=O)NCC(=O)N[C@@H](CSCC(=O)CC(=O)N[C@@H](CCCCN)C(=O)N[C@@H](CCCCN)C(=O)NCC(=O)N[C@@H](CS)C(=O)O)C(=O)NCC(N)=O)NC(=O)[C@@H](CC(=O)O)NC(=O)CNC2=O)cc1,0.0025%

# Species on record: Canis familiaris
# Assay: Percent injected dose in the thrombus was determined by canine thrombosis model
# Format: functional, organism-based
# Settings: Canis lupus familiaris
row,SMILES,ID/g
1,N=C(N)c1ccc(C[C@H]2NC(=O)[C@H](Cc3ccc(O)cc3)NC(=O)CSC[C@H](C(=O)N[C@@H](CCCCN)C(=O)NCC(=O)N[C@@H](CSCC(=O)CC(=O)N[C@@H](CCCCN)C(=O)N[C@@H](CCCCN)C(=O)NCC(=O)N[C@@H](CS)C(=O)O)C(=O)NCC(N)=O)NC(=O)[C@@H](CC(=O)O)NC(=O)CNC2=O)cc1,0.017%

# Species on record: Homo sapiens
# Assay: Inhibition of ADP-induced platelet aggregation in human platelet rich citreated plasma in presence of 10-20 uM ADP.
# Format: functional
# Settings: not given
row,SMILES,IC50
1,N=C(N)c1ccc(C[C@@H]2NC(=O)[C@@H](Cc3ccc(O)cc3)NC(=O)CSC[C@@H](C(=O)N[C@@H](CCCCN)C(=O)NCC(=O)N[C@@H](CSCC(=O)CC(=O)N[C@@H](CCCCN)C(=O)N[C@@H](CCCCN)C(=O)NCC(=O)N[C@@H](CS)C(=O)O)C(=O)NCC(N)=O)NC(=O)[C@H](CC(=O)O)NC(=O)CNC2=O)cc1 [listing 1 of 2 here],30 nM
2,CC(=O)NCSC[C@H](NC(=O)CNC(=O)CNC(=O)[C@@H]1CSCC(=O)N[C@H](Cc2ccc(O)cc2)C(=O)N[C@@H](CSCCCN)C(=O)NCC(=O)N[C@@H](CC(=O)O)C(=O)N1)C(=O)NCC(=O)N[C@@H](CSCNC(C)=O)C(=O)NCC(=O)NCC(=O)N[C@@H](CSC1CCNC(=O)CNCCNC(=O)CNCCNC(=O)C1)C(N)=O (some centres not stated),30 nM
3,NCCCC[C@H](NC(=O)[C@@H]1CSCC(=O)N[C@H](Cc2ccc(O)cc2)C(=O)N[C@@H](CSCCCN)C(=O)NCC(=O)N[C@@H](CC(=O)O)C(=O)N1)C(=O)NCC(=O)N[C@@H](CS)C(=O)NCC(=O)N[C@@H](CS)C(=O)NCC(=O)NCC(=O)N[C@@H](CSC1CC(=O)[N+]2(COC2)C1=O)C(N)=O (some centres not stated),40 nM
4,N=C(N)c1ccc(C[C@@H]2NC(=O)[C@@H](Cc3ccc(O)cc3)NC(=O)CSC[C@@H](C(=O)N[C@@H](CCCCN)C(=O)NCC(=O)N[C@@H](CS)C(=O)NCC(N)=O)NC(=O)[C@H](CC(=O)O)NC(=O)CNC2=O)cc1,80 nM
5,CC(=O)NCSC[C@H](NC(=O)CNC(=O)CNC(=O)[C@@H]1CSCC(=O)N[C@H](Cc2ccc(O)cc2)C(=O)N[C@@H](CSCCCN)C(=O)NCC(=O)N[C@@H](CC(=O)O)C(=O)N1)C(=O)NCC(=O)N[C@@H](CSCNC(C)=O)C(=O)NCC(=O)NCC(=O)N[C@@H](CSC1CC(=O)[N+]2(CCCCCC2)C1=O)C(N)=O (some centres not stated),140 nM
6,CC(=O)NCSC[C@H](NC(=O)CNC(=O)[C@H](CSCNC(C)=O)NC(=O)CNC(=O)[C@H](CCCCN)NC(=O)[C@@H]1CSCC(=O)N[C@H](Cc2ccc(O)cc2)C(=O)N[C@@H](CSCCCN)C(=O)NCC(=O)N[C@@H](CC(=O)O)C(=O)N1)C(N)=O,160 nM
7,CC(=O)NCSC[C@H](NC(=O)CNC(=O)CNC(=O)[C@@H]1CSCC(=O)N[C@H](Cc2ccc(O)cc2)C(=O)N[C@@H](CSCCCN)C(=O)NCC(=O)N[C@@H](CC(=O)O)C(=O)N1)C(=O)NCC(=O)N[C@@H](CSCNC(C)=O)C(=O)NCC(=O)NCC(=O)N[C@@H](CSCC(=O)CC(=O)N[C@@H](CCCCN)C(=O)N[C@@H](CCCCN)C(=O)N[C@@H](CCCCN)C(=O)N[C@@H](CCCCN)C(=O)NCC(=O)N[C@@H](CS)C(=O)O)C(N)=O,30 nM
8,CC(=O)NCSC[C@H](NC(=O)CNC(=O)[C@H](CSCNC(C)=O)NC(=O)CNC(=O)CNC(=O)CNC(=O)[C@@H]1CSCC(=O)N[C@H](Cc2ccc(O)cc2)C(=O)N[C@@H](CSCCCN)C(=O)NCC(=O)N[C@@H](CC(=O)O)C(=O)N1)C(N)=O ({CH2CO}-[dY]C(Propyl(3-NH2))GDCGGGC(Acm)GC(Acm)-NH2; thioether N-5),300 nM
9,N=C(N)c1ccc(C[C@@H]2NC(=O)[C@@H](Cc3ccc(O)cc3)NC(=O)CSC[C@@H](C(=O)NCC(=O)NCC(=O)N[C@@H](CS)C(=O)NCC(=O)N[C@@H](CS)C(=O)NCC(=O)NCC(=O)N[C@@H](CSCC(=O)CC(=O)N[C@@H](CCCCN)C(=O)N[C@@H](CCCCN)C(=O)NCC(=O)N[C@@H](CS)C(=O)O)C(N)=O)NC(=O)[C@H](CC(=O)O)NC(=O)CNC2=O)cc1,50 nM
10,CC(=O)NCSC[C@H](NC(=O)CNC(=O)CNC(=O)[C@H]1CSCC(=O)N[C@@H](Cc2ccc(O)cc2)C(=O)N[C@H](CSCCCN)C(=O)NCC(=O)N[C@H](CC(=O)O)C(=O)N1)C(=O)NCC(=O)N[C@@H](CSCNC(C)=O)C(=O)NCC(=O)NCC(=O)N[C@@H](CSCC(=O)CC(=O)N[C@@H](CCCCN)C(=O)N[C@@H](CCCCN)C(=O)NCC(=O)N[C@@H](CS)C(=O)O)C(=O)NCC(=O)[C@@H]1CSC23SCC(NC(=O)[C@H](CSCC(=O)CC(=O)N[C@@H](CCCCN)C(=O)N[C@@H](CCCCN)C(=O)NCC(=O)N[C@@H](CS)C(=O)O)NC(=O)CNC(=O)CNC(=O)[C@H](CSCNC(C)=O)NC(=O)CNC(=O)[C@H](CSCNC(C)=O)NC(=O)CNC(=O)CNC(=O)[C@H]4CSCC(=O)N[C@@H](Cc5ccc(O)cc5)C(=O)N[C@H](CSCCCN)C(=O)NCC(=O)N[C@H](CC(=O)O)C(=O)N4)C(=O)N2CC(=O)N13 (some centres not stated),90 nM
11,NCCCC[C@H](NC(=O)[C@@H]1CSCC(=O)N[C@H](Cc2ccc(O)cc2)C(=O)N[C@@H](CSCCCN)C(=O)NCC(=O)N[C@@H](CC(=O)O)C(=O)N1)C(=O)N[C@@H](CS)C(=O)NCC(N)=O,140 nM
12,CC(=O)NCSC[C@H](NC(=O)CNC(=O)CNC(=O)[C@@H]1CSCC(=O)N[C@H](Cc2ccc(O)cc2)C(=O)N[C@@H](CSCCCN)C(=O)NCC(=O)N[C@@H](CC(=O)O)C(=O)N1)C(=O)NCC(=O)N[C@@H](CSCNC(C)=O)C(=O)NCC(=O)NCC(=O)N[C@@H](CSCC(=O)CC(=O)N[C@@H](CCCCN)C(=O)N[C@@H](CCCCN)C(=O)NCC(=O)N[C@@H](CS)C(=O)O)C(N)=O,110 nM
13,C[C@H](NC(=O)[C@H](CS)NC(=O)CNC(=O)[C@H](CCCCN)NC(=O)[C@H](CCCCN)NC(=O)CNC(=O)CNC(=O)[C@H](CCCCN)NC(=O)CNC(=O)CNC(=O)[C@H](CCCCN)NC(=O)[C@@H]1CSCC(=O)N[C@H](Cc2ccc(O)cc2)C(=O)N[C@@H](CSCCCN)C(=O)NCC(=O)N[C@@H](CC(=O)O)C(=O)N1)C(N)=O,80 nM
14,CC(=O)NCSC[C@H](NC(=O)CNC(=O)[C@H](CSCNC(C)=O)NC(=O)CNC(=O)CNC(=O)CNC(=O)[C@@H]1CSCC(=O)N[C@H](Cc2ccc(O)cc2)C(=O)N[C@@H](CCCN=C(N)N)C(=O)NCC(=O)N[C@@H](CC(=O)O)C(=O)N1)C(N)=O,1400 nM
15,NCCCC[C@H](NC(=O)CNC(=O)CNC(=O)[C@@H]1CSCC(=O)N[C@H](Cc2ccc(O)cc2)C(=O)N[C@@H](CSCCCN)C(=O)NCC(=O)N[C@@H](CC(=O)O)C(=O)N1)C(=O)NCC(=O)N[C@@H](CCCCN)C(=O)NCC(=O)N[C@@H](CCCCN)C(=O)N[C@@H](CCCCN)C(=O)NCC(=O)N[C@@H](CS)C(=O)NCC(N)=O,110 nM
16,CC(=O)NCSC[C@H](NC(=O)CNC(=O)[C@H](CSCNC(C)=O)NC(=O)CNC(=O)CNC(=O)[C@@H]1CSCC(=O)N[C@H](Cc2ccc(O)cc2)C(=O)N[C@@H](CCCN=C(N)N)C(=O)NCC(=O)N[C@@H](CC(=O)O)C(=O)N1)C(N)=O,1300 nM
17,N=C(N)c1ccc(C[C@H]2NC(=O)[C@H](Cc3ccc(O)cc3)NC(=O)CSC[C@H](C(=O)N[C@@H](CCCCN)C(=O)NCC(=O)N[C@@H](CSCC(=O)CC(=O)N[C@@H](CCCCN)C(=O)N[C@@H](CCCCN)C(=O)NCC(=O)N[C@@H](CS)C(=O)O)C(=O)NCC(=O)NCC(=O)[C@@H]3CSC45SCC(NC(=O)CNC(=O)[C@H](CSCC(=O)CC(=O)N[C@@H](CCCCN)C(=O)N[C@@H](CCCCN)C(=O)NCC(=O)N[C@@H](CS)C(=O)O)NC(=O)CNC(=O)[C@H](CCCCN)NC(=O)[C@H]6CSCC(=O)N[C@@H](Cc7ccc(O)cc7)C(=O)N[C@H](Cc7ccc(C(=N)N)cc7)C(=O)NCC(=O)N[C@H](CC(=O)O)C(=O)N6)C(=O)N4CC(=O)N35)NC(=O)[C@@H](CC(=O)O)NC(=O)CNC2=O)cc1 (some centres not stated),40 nM
18,CC(=O)NCSC[C@H](NC(=O)CNC(=O)CNC(=O)[C@@H]1CSCC(=O)N[C@H](Cc2ccc(O)cc2)C(=O)N[C@@H](CSCCCN)C(=O)NCC(=O)N[C@@H](CC(=O)O)C(=O)N1)C(=O)NCC(=O)N[C@@H](CSCNC(C)=O)C(=O)NCC(=O)NCC(=O)N[C@@H](CSC1CC(=O)[N+]2(CCCNCCC2)C1=O)C(N)=O (some centres not stated),40 nM

# Test system: not listed separately
# Assay: Thrombus to blood ratio was determined by canine thrombosis model
# Format: functional
# Settings: not given
row,SMILES,Ratio
1,N=C(N)c1ccc(C[C@H]2NC(=O)[C@H](Cc3ccc(O)cc3)NC(=O)CSC[C@H](C(=O)N[C@@H](CCCCN)C(=O)NCC(=O)N[C@@H](CSCC(=O)CC(=O)N[C@@H](CCCCN)C(=O)N[C@@H](CCCCN)C(=O)NCC(=O)N[C@@H](CS)C(=O)O)C(=O)NCC(N)=O)NC(=O)[C@@H](CC(=O)O)NC(=O)CNC2=O)cc1,7.2

# Test system: not listed separately
# Assay: Thrombus to muscle ratio was determined by canine thrombosis model
# Format: functional, Muscle tissue
# Settings: not given
row,SMILES,Ratio
1,N=C(N)c1ccc(C[C@@H]2NC(=O)[C@@H](Cc3ccc(O)cc3)NC(=O)CSC[C@@H](C(=O)N[C@@H](CCCCN)C(=O)NCC(=O)N[C@@H](CSCC(=O)CC(=O)N[C@@H](CCCCN)C(=O)N[C@@H](CCCCN)C(=O)NCC(=O)N[C@@H](CS)C(=O)O)C(=O)NCC(N)=O)NC(=O)[C@H](CC(=O)O)NC(=O)CNC2=O)cc1 [listing 2 of 2 here],41
